Laboratory results from patent US20160193299A1, “MODIFIED NUCLEOSIDE, NUCLEOTIDE, AND NUCLEIC ACID COMPOSITIONS” (Moderna Therapeutics, Inc., priority 2011, published 2016).

Columns and labels:
HeLa cells = assay: Chemical modifications on luciferase mRNA, HeLa transfection (RLU); format: cell-based; conditions: 83 ng luciferase mRNA, 18 to 22 hours
Method: The day before transfection, 20,000 HeLa cells (ATCC no. CCL-2; Manassas, Va.) were harvested by treatment with Trypsin-EDTA solution (Life Technologies, Grand Island, N.Y.) and seeded in a total volume of 100 ul EMEM medium (supplemented with 10% FCS and 1× Glutamax) per well in a 96-well cell culture plate (Corning, Manassas, Va.). The cells were grown at 37° C. in 5% CO2 atmosphere overnight. […] Lipofectamine 2000 (LifeTechnologies, Grand Island, N.Y.) was used as transfection reagent and 0.2 ul were diluted in 10 ul final volume of OPTI-MEM. After 5 minutes of incubation at room temperature, both solutions were combined and incubated an additional 15 minute at room temperature. Then the 20 ul combined solution was added to the 100 ul cell culture medium containing the HeLa cells and incubated at room temperature.
After 18 to 22 hours of incubation cells expressing luciferase were lysed with 100 ul of Passive Lysis Buffer (Promega, Madison, Wis.) according to manufacturer instructions. Aliquots of the lysates were transferred to white opaque polystyrene 96-well plates (Corning, Manassas, Va.) and combined with 100 ul complete luciferase assay solution (Promega, Madison, Wis.). […] The plate reader was a BioTek Synergy H1 (BioTek, Winooski, Vt.). The background signal of the plates without reagent was about 200 relative light units per well.

Balb-C mice [1] = assay: Intramuscular and subcutaneous administration of modified luciferase mRNA in PBS (whole-body flux); format: in vivo, mouse
Method: The mice were imaged at 2 hours, 8 hours, 24 hours, 48 hours, 72 hours, 96 hours, 120 hours and 144 hours for intramuscular delivery and 2 hours, 8 hours, 24 hours, 48 hours, 72 hours, 96 hours and 120 hours for subcutaneous delivery. Twenty minutes prior to imaging, mice were injected intraperitoneally with a D-luciferin solution at 150 mg/kg. Animals were then anesthetized and images were acquired with an IVIS Lumina II imaging system (Perkin Elmer). Bioluminescence was measured as total flux (photons/second) of the entire mouse. The average total flux (photons/second) for intramuscular administration is shown in Table 113 and the average total flux (photons/second) for subcutaneous administration is shown in Table 114. The background signal was 3.79E+05 (p/s). The peak expression for intramuscular administration was seen between 24 and 48 hours for all chemistry and expression was still detected at 144 hours.

Balb-C mice [2] = assay: Lipoplex study, whole-body flux (Table 129); format: in vivo, mouse; conditions: lipoplexed luciferase mRNA, 0.10 mg/kg
Method: (§1) The formulation was administered intravenously (I.V.), intramuscularly (I.M.) or subcutaneously (S.C.) to Balb-C mice at a dose of 0.10 mg/kg.
(§2) Twenty minutes prior to imaging, mice were injected intraperitoneally with a D-luciferin solution at 150 mg/kg. Animals were then anesthetized and images were acquired with an IVIS Lumina II imaging system (Perkin Elmer). Bioluminescence was measured as total flux (photons/second) of the entire mouse. The mice were imaged at 8 hours, 24 hours and 48 hours after dosing and the average total flux (photons/second) was measured for each route of administration and chemical modification. The background signal was about 3.91E+05 p/s. Organs were imaged at 6 hours and the average total flux (photons/second) was measured for the liver, spleen, lung and kidney. A control for each organ was also analyzed.

[3] = system: liver, spleen, lung and kidney; assay: Lipoplex study, organ flux at 6 hours (Table 130); format: in vivo, mouse; conditions: lipoplexed luciferase mRNA, 0.10 mg/kg
Method: as §1, §2

human EPO [4] = assay: Example 43 multi-dose/multi-administration IM, serum human EPO; format: in vivo, Sprague-Dawley rats; conditions: rat serum 13 h post I.M.
Method: The dosing vehicle (F. buffer) was used as a control.
Animals (n=5), Sprague-Dawley rats, were injected IM (intramuscular) for the single unit dose of 100 ug (delivered to one thigh). For multi-dosing 6 doses of 100 ug (delivered to two thighs) were used for both EPO and G-CSF mmRNA. Control dosing involved use of buffer at a single dose. Human EPO blood levels were evaluated 13 hrs post injection.
Human EPO protein was measured in rat serum 13 h post I.M. Five groups of rats were treated and evaluated.

human EPO [5] = assay: Example 48 split dose study IM, serum human EPO, product per unit drug and dose splitting factor; format: in vivo, mice; conditions: for Avg. pmol/mL human EPO: serum 13 h
Method: The dosing vehicle (F. buffer) consisted of 150 mM NaCl, 2 mM CaCl2, 2 mM Nat phosphate (1.4 mM monobasic sodium phosphate; 0.6 mM dibasic sodium phosphate), and 0.5 mM EDTA, pH 6.5. The pH was adjusted using sodium hydroxide and the final solution was filter sterilized.
Animals (n=5) were injected IM (intramuscular) for the single unit dose of 100 ug. For multi-dosing, two schedules were used, 3 doses of 100 ug and 6 doses of 100 ug. For the split dosing scheme, two schedules were used, 3 doses at 33.3 ug and 6 doses of 16.5 ug mmRNA. Control dosing involved use of buffer only at 6 doses. […] Blood and muscle tissue were evaluated 13 hrs post injection.
Human EPO protein was measured in mouse serum 13 h post I.M. single, multi- or split dosing of the EPO mmRNA in buffer. Seven groups of mice (n=5 mice per group) were treated and evaluated.
The splitting factor is defined as the product per unit drug divided by the single dose product per unit drug (PUD). For example for treatment group 2 the value 0.28 or product (EPO) per unit drug (mmRNA) is divided by the single dose product per unit drug of 0.14. The result is 2. Likewise, for treatment group 4, the value 1.1 or product (EPO) per unit drug (mmRNA) is divided by the single dose product per unit drug of 0.14. The result is 7.9. Consequently, the dose splitting factor (DSF) may be used as an indicator of the efficacy of a split dose regimen. For any single administration of a total daily dose, the DSF should be equal to 1. Therefore any DSF greater than this value in a split dose regimen is an indication of increased efficacy.

Work on “5mC/pU: Luciferase mRNA SEQ ID NO: 16, polyA about 140, fully modified with 5-methylcytosine and pseudouridine” yielded an RLU (HeLa cells) of 1601234 RLU, a Flux (Balb-C mice [1]; Balb-C mice, intramuscular 2.5 mg/kg in PBS, 2 hours) of 1.98E+07 p/s and a Flux (Balb-C mice [1]; Balb-C mice, subcutaneous 2.5 mg/kg in PBS, 2 hours) of 5.26E+06 p/s. The Flux (Balb-C mice [1]; intramuscular 2.5 mg/kg, 8 hours) was 1.42E+07 p/s, the Flux (Balb-C mice [1]; intramuscular 2.5 mg/kg, 24 hours) was 2.92E+07 p/s and the Flux (Balb-C mice [1]; intramuscular 2.5 mg/kg, 48 hours) was 2.64E+07 p/s. It also gave a Flux (Balb-C mice [1]; intramuscular 2.5 mg/kg, 72 hours) of 2.18E+07 p/s, a Flux (Balb-C mice [1]; intramuscular 2.5 mg/kg, 96 hours) of 2.75E+07 p/s and a Flux (Balb-C mice [1]; intramuscular 2.5 mg/kg, 120 hours) of 2.19E+07 p/s. It also gave a Flux (Balb-C mice [1]; intramuscular 2.5 mg/kg, 144 hours) of 9.17E+06 p/s, a Flux (Balb-C mice [1]; subcutaneous 2.5 mg/kg, 8 hours) of 2.32E+06 p/s and a Flux (Balb-C mice [1]; subcutaneous 2.5 mg/kg, 24 hours) of 2.67E+06 p/s. The Flux (Balb-C mice [1]; subcutaneous 2.5 mg/kg, 48 hours) was 1.22E+06 p/s, the Flux (Balb-C mice [1]; subcutaneous 2.5 mg/kg, 72 hours) was 1.12E+06 p/s and the Flux (Balb-C mice [1]; subcutaneous 2.5 mg/kg, 96 hours) was 5.16E+05 p/s. It also gave a Flux (Balb-C mice [1]; subcutaneous 2.5 mg/kg, 120 hours) of 3.80E+05 p/s, a Flux (Balb-C mice [2]; I.M., 8 hrs) of 1.90E+06 p/s and a Flux (Balb-C mice [2]; I.M., 24 hrs) of 9.33E+05 p/s. It also gave a Flux (Balb-C mice [2]; I.M., 48 hrs) of 8.51E+05 p/s, a Flux (Balb-C mice [2]; I.V., 8 hrs, background about 3.91E+05 p/s) of 5.76E+06 p/s and a Flux (Balb-C mice [2]; I.V., 24 hrs) of 1.02E+06 p/s. For the same molecule, the Flux (Balb-C mice [2]; I.V., 48 hrs) was 4.53E+05 p/s, the Flux (Balb-C mice [2]; S.C., 8 hrs) was 2.85E+06 p/s and the Flux (Balb-C mice [2]; S.C., 24 hrs) was 6.66E+05 p/s. The Flux (Balb-C mice [2]; S.C., 48 hrs) was 3.24E+05 p/s, the “Inj. Site Flux” value ([3]; I.M.) was 1.15E+06 p/s and the “Kidney Flux” value ([3]; I.M.) was 1.44E+04 p/s. For the same molecule, the “Liver Flux” value ([3]; I.M.) was 2.46E+04 p/s, the “Lung Flux” value ([3]; I.M.) was 1.50E+04 p/s and the “Spleen Flux” value ([3]; I.M.) was 1.38E+04 p/s. For the same molecule, the “Kidney Flux” value ([3]; I.V.) was 1.77E+04 p/s, the “Liver Flux” value ([3]; I.V.) was 5.26E+05 p/s and the “Lung Flux” value ([3]; I.V.) was 4.28E+06 p/s. The “Spleen Flux” value ([3]; I.V.) was 2.04E+07 p/s, the “Inj. Site Flux” value ([3]; S.C.) was 4.46E+04 p/s and the “Kidney Flux” value ([3]; S.C.) was 1.69E+04 p/s. The “Liver Flux” value ([3]; S.C.) was 1.55E+04 p/s, the “Lung Flux” value ([3]; S.C.) was 1.45E+04 p/s and the “Spleen Flux” value ([3]; S.C.) was 1.67E+04 p/s.

With “Unmodified Luciferase: unmodified luciferase mRNA SEQ ID NO: 16, polyA about 140, Cap1” the RLU (HeLa cells) was 33980 RLU.

B1: Human EPO mmRNA (nucleic acid, listed as Homo sapiens)
sense: GGGAAAUAAGAGAGAAAAGAAGAGUAAGAAGAAAUAUAAGAGCCACCAUGGGAGUGCACGAGUGUCCCGCGUGGUUGUGGUUGCUGCUGUCGCUCUUGAGCCUCCCACUGGGACUGCCUGUGCUGGGGGCACCACCCAGAUUGAUCUGCGACUCACGGGUACUUGAGAGGUACCUUCUUGAAGCCAAAGAAGCCGAAAACAUCACAACCGGAUGCGCCGAGCACUGCUCCCUCAAUGAGAACAUUACUGUACCGGAUACAAAGGUCAAUUUCUAUGCAUGGAAGAGAAUGGAAGUAGGACAGCAGGCCGUCGAAGUGUGGCAGGGGCUCGCGCUUUUGUCGGAGGCGGUGUUGCGGGGUCAGGCCCUCCUCGUCAACUCAUCACAGCCGUGGGAGCCCCUCCAACUUCAUGUCGAUAAAGCGGUGUCGGGGCUCCGCAGCUUGACGACGUUGCUUCGGGCUCUGGGCGCACAAAAGGAGGCUAUUUCGCCGCCUGACGCGGCCUCCGCGGCACCCCUCCGAACGAUCACCGCGGACACGUUUAGGAAGCUUUUUAGAGUGUACAGCAAUUUCCUCCGCGGAAAGCUGAAAUUGUAUACUGGUGAAGCGUGUAGGACAGGGGAUCGCUGAUAAGCUGCCUUCUGCGGGGCUUGCCUUCUGGCCAUGCCCUUCUUCUCUCCCUUGCACCUGUACCUCUUGGUCUUUGAAUAAAGCCUGAGUAGGAAG
modifications: 5' Cap1, polyA tail ~160 nt
B1 was tested, and the “Avg. human EPO” value (human EPO [4]; 1 × 100 ug, total dose 100 ug) was 143 pg/mL, the “Avg. human EPO” value (human EPO [4]; 6 × 100 ug, total dose 600 ug) was 256 pg/mL and the “Dose Splitting Factor” value (human EPO [5]; 1 × 100 ug, total 100 ug) was 1. The “Polypeptide per unit drug” value (human EPO [5]; 1 × 100 ug, total 100 ug) was 0.14 pmol/µg, the “Avg. pmol/mL human EPO” value (human EPO [5]; 1 × 100 ug, total 100 ug) was 14.3 pmol/mL and the “Dose Splitting Factor” value (human EPO [5]; 3 × 33.3 ug, total 100 ug) was 7.9. The “Polypeptide per unit drug” value (human EPO [5]; 3 × 33.3 ug, total 100 ug) was 1.1 pmol/µg, the “Avg. pmol/mL human EPO” value (human EPO [5]; 3 × 33.3 ug, total 100 ug) was 104.7 pmol/mL and the “Dose Splitting Factor” value (human EPO [5]; 3 × 100 ug, total 300 ug) was 2. For the same molecule, the “Polypeptide per unit drug” value (human EPO [5]; 3 × 100 ug, total 300 ug) was 0.28 pmol/µg, the “Avg. pmol/mL human EPO” value (human EPO [5]; 3 × 100 ug, total 300 ug) was 82.5 pmol/mL and the “Dose Splitting Factor” value (human EPO [5]; 6 × 16.5 ug, total 100 ug) was 9.3. The “Polypeptide per unit drug” value (human EPO [5]; 6 × 16.5 ug, total 100 ug) was 1.3 pmol/µg, the “Avg. pmol/mL human EPO” value (human EPO [5]; 6 × 16.5 ug, total 100 ug) was 127.9 pmol/mL and the “Dose Splitting Factor” value (human EPO [5]; 6 × 100 ug, total 600 ug) was 3.3. For the same molecule, the “Polypeptide per unit drug” value (human EPO [5]; 6 × 100 ug, total 600 ug) was 0.46 pmol/µg and the “Avg. pmol/mL human EPO” value (human EPO [5]; 6 × 100 ug, total 600 ug) was 273.0 pmol/mL.
